Data reported in US20080318943A1, “Compounds and Uses Thereof - 848” (ASTRAZENECA AB, priority 2007, published 2008).

How the values were obtained:
[1] = molecular target: T1, GABAA2 receptors (α2, β3, γ2 receptor subunits transfected into Sf9 cells) (Homo sapiens, UniProt P18507+P47869); assay: GABAA2 Binding Method ([3H]-Flunitrazepam displacement); details: [3H]-Flunitrazepam ~2 nM, α2β3γ2 Sf9 membranes, 1 hr at 4° C.
T1 construct: host or cells: Sf9 cells (membranes)
Procedure, shortened: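 Displacement of [3H]-flunitrazepam (~2 nM in assay) from recombinant human α2β3γ2 receptors in Sf9 membranes; 1 h incubation at 4 °C, harvest by filtration. Values reported as percent of control, IC50 and Ki.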

GABAA receptor α1β2γ2 = molecular target: T2, GABAA receptor α1β2γ2 (Homo sapiens, UniProt P14867+P18507); assay: Two-electrode voltage-clamp potentiation of GABA EC10 current in Xenopus oocytes, GABAA1; format: cell-based; details: percentage potentiation of GABA EC10 current divided by that of diazepam
T2 construct: expressed in transfected cells; host or cells: Xenopus laevis oocytes injected with cRNA
Procedure, shortened: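 Human GABAA receptors expressed in Xenopus oocytes by cRNA injection (α:β:γ molar ratio ~1:1:10 for α1β2γ2, 1:1:1 for α2β3γ2), recorded 2-10 days later by two-electrode voltage clamp at −60 mV in ND-96, pH 7.5. Modulator preapplied 30 s before GABA at per-oocyte EC10. Peak-current percent potentiation over GABA alone, normalised to diazepam.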

GABAA receptor α2β3γ2 = molecular target: T3, GABAA receptor α2β3γ2 (Homo sapiens, UniProt P18507+P47869); assay: Two-electrode voltage-clamp potentiation of GABA EC10 current in Xenopus oocytes, GABAA2; format: cell-based; details: percentage potentiation of GABA EC10 current divided by that of diazepam
T3 construct: expressed in transfected cells; host or cells: Xenopus laevis oocytes injected with cRNA
Procedure: GABAA receptors were heterologously expressed in Xenopus oocytes by injecting cRNA corresponding to human α1, α2, α3, α5, β2, P3 and γ2 subunits of the GABAA receptor genes. The specific subunit combinations (subtypes) were as follows: α1β2γ2, α2β3γ2, α3β3γ2, and α5β3γ2. The EC10 of GABA is approximated for each cell. Stability of GABA-mediated (EC10) current is established. Modulatory effect of test compound is determined and compared across subtypes. […] Thus, the assay can characterize modulatory effects and determine subtype selectivity of test compounds on major subtypes of GABAA receptors.
Xenopus laevis frogs (Xenopus I, Kalamazoo, Mich.) were anesthetized using 0.15% tricaine. Surgically removed ovarian lobes were teased out in OR2 solution (82 NaCl, 2.5 KCl, 5 HEPES, 1.5 NaH2PO4, 1 MgCl2, 0.1 EDTA, in mM, pH 7.4). The oocytes were defolliculated by incubation in 25 mL OR2 containing 0.2% collagenase 1A (SIGMA) two times for about 60 minutes on a platform shaker and stored in Leibovitz's L-15 medium. Oocytes were injected the following day in 0.5× Leibovitz's L-15 medium containing […] gentamycin, 10 units/ml penicillin, and […] streptomycin.
Capped cRNAs from the linearized vectors containing human α1, β2 and γ2 subunits of the GABAA receptor genes were mixed in ratio of […]. Oocytes were injected with 25-50 nL of mixed RNA with an appx molar ratio for α1, β2, and γ2 as 1:1:10. Oocyte recordings were done 2-10 days after injection. The same methods apply to subtypes derived from α2β3γ2, α3β3γ2, and α5β3γ2, except for 1:1:1 ratio was used for α, β, and γ subunits.
All measurements were done in a medium containing ND-96 (96 NaCl, 2 KCl, 1.8 CaCl2.2H2O, 1 MgCl2.6H2O, 5 HEPES, in mM, pH 7.5). Two-electrode voltage-clamp recording was carried out using OpusXpress amplifier (Axon Instruments, Foster City, Calif.), which allows simultaneous recording from 8 oocytes. Oocytes were impaled with two electrodes of 1-2 MΩ tip resistance when filled with 3M KCl. Recordings were begun when membrane potential became stable at potentials negative to −50-−60 mV. Membrane potential was held at −60 mV. […] The concentration of GABA corresponded to the EC10 value calculated for each oocyte. The modulator pulses started 30 s before the GABA pulse so as to allow preincubation with the modulator. A set of 3 pulses with just GABA without modulator was given prior to the modulator-containing pulses to define the baseline GABA response. Two oocytes per each experiment were dedicated to observe the effect of diazepam on GABA response to ensure the presence of γ2 subunit in the GABAA pentameric complex, which imparts diazepam sensitivity to the complex.
Current amplitude (i) was measured from baseline to peak using Clampfit (Axon Inst., Foster City, Calif.). Potentiation was calculated as percent change from the baseline GABA current flux 100×(imod/icontrol)−1) where imod=current mediated by modulator+GABA and icontrol=current mediated by GABA alone. […] Similarly, a value of −50% potentiation means the presence of modulator caused a 50% decrease in the control current. Various other data shown here were fitted and plotted using GraphPad Prism (GraphPad Software, Inc. San Diego, Calif.). The percentage potentiation was converted to relative potentiation by dividing it with percentage potentiation value obtained from the same assay with diazepam as a control.

T3 sequence (P47869 29-451): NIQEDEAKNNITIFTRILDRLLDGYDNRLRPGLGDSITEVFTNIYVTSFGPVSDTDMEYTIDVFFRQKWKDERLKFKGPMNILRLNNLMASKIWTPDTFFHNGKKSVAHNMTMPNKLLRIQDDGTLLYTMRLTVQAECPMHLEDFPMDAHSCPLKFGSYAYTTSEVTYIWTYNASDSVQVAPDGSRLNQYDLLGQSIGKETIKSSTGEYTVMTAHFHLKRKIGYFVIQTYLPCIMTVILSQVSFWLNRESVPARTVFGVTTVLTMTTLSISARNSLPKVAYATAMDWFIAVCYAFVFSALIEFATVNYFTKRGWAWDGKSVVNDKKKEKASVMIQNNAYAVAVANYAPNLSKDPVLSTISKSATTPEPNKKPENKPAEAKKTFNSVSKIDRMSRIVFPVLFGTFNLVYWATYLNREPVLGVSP
T3 sequence (P28472 26-473 partner): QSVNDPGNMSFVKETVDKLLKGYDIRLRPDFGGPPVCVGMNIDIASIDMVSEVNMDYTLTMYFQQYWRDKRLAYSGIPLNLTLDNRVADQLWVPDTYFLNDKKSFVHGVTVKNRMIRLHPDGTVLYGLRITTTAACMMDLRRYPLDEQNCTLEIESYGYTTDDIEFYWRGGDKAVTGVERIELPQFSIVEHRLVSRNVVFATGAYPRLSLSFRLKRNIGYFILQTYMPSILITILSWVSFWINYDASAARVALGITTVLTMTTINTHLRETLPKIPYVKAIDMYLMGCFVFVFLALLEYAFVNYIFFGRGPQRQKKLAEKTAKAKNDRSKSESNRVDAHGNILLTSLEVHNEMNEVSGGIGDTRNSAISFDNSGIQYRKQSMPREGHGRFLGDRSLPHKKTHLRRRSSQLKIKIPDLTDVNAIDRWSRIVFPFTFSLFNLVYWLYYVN
T3 sequence (P18507 40-475): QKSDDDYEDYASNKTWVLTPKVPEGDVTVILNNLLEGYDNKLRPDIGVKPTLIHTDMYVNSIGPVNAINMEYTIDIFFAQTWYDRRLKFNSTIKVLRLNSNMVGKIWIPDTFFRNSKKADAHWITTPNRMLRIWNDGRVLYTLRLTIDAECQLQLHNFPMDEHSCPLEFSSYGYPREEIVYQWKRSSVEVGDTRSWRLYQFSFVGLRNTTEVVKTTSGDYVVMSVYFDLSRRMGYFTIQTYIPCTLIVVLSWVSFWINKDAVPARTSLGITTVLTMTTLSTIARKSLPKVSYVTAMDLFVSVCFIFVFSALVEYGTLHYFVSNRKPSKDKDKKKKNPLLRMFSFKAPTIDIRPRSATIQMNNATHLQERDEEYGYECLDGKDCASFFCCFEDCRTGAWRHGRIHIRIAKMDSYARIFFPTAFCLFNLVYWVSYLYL
T1 sequence (P47869 29-451): as the sequence (P47869 29-451) above
T1 sequence (P28472 26-473 partner): as the sequence (P28472 26-473 partner) above
T1 sequence (P18507 40-475): as the sequence (P18507 40-475) above
T2 sequence (P14867 28-456): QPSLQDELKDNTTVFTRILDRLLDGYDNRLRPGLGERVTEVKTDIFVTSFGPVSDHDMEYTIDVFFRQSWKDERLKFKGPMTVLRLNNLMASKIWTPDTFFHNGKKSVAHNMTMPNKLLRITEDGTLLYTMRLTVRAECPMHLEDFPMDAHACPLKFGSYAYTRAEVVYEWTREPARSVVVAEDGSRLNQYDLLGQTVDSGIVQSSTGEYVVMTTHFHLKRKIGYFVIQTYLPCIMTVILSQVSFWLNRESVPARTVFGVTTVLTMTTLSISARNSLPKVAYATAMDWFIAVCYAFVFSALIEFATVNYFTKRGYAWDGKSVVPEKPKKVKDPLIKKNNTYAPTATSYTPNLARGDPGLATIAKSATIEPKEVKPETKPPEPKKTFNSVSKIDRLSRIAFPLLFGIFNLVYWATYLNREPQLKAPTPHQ
T2 sequence (P47870 25-512 partner limits assumed): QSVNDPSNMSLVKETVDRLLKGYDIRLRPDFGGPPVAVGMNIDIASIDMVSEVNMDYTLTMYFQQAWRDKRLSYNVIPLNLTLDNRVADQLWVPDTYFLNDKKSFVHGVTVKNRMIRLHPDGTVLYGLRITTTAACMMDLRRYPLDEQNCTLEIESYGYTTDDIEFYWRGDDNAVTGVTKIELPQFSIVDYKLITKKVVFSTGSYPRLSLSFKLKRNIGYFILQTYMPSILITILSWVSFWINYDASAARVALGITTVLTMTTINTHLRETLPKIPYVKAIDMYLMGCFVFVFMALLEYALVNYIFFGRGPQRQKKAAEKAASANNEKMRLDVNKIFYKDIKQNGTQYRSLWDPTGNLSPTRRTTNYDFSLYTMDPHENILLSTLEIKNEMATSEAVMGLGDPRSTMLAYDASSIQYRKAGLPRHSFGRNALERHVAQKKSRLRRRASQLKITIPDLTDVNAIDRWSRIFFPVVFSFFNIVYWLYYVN
T2 sequence (P18507 40-475): as the sequence (P18507 40-475) above

Structure (SMILES)	Ki [1] [nM]	Relative Potentiation for GABAA1 (GABAA receptor α1β2γ2)	Relative Potentiation for GABAA2 (GABAA receptor α2β3γ2)
COc1nnccc1-c1cccc2c(N)c3c(nc12)CN(C1CCC1)C3=O [9-Amino-2-cyclobutyl-5-(3-methoxypyridazin-4-yl)-2,3-dihydropyrrolo[3,4-b]quinolin-1-one]	4.73	0.082	0.43
COc1cnccc1-c1cccc2c(N)c3c(nc12)CN(C1CCC1)C3=O [9-Amino-2-cyclobutyl-5-(3-methoxypyridin-4-yl)-2,3-dihydropyrrolo[3,4-b]quinolin-1-one]	0.64	0.1	0.32
COc1cc(F)ccc1-c1cccc2c(N)c3c(nc12)CN(C1CCC1)C3=O [9-Amino-2-cyclobutyl-5-(4-fluoro-2-methoxyphenyl)-2,3-dihydropyrrolo[3,4-b]quinolin-1-one]	8.36	0.035	0.26
COc1ncncc1-c1cccc2c(N)c3c(nc12)CN(C1CCC1)C3=O [9-Amino-2-cyclobutyl-5-(4-methoxy-pyrimidin-5-yl)-2,3-dihydropyrrolo[3,4-b]quinolin-1-one]	0.631	0.083	0.52
Cc1ccncc1-c1cccc2c(N)c3c(nc12)CN(C1CCC1)C3=O [9-Amino-2-cyclobutyl-5-(4-methylpyridin-3-yl)-2,3-dihydropyrrolo[3,4-b]quinolin-1-one]	1.1	0.017	0.13
COc1ccc(F)cc1-c1cccc2c(N)c3c(nc12)CN(C1CCC1)C3=O [9-Amino-2-cyclobutyl-5-(5-fluoro-2-methoxyphenyl)-2,3-dihydropyrrolo[3,4-b]quinolin-1-one]	8.9	0.066	0.36
COc1cc(-c2cccc3c(N)c4c(nc23)CN(C2CCC2)C4=O)c(F)cn1 [9-Amino-2-cyclobutyl-5-(5-fluoro-2-methoxypyridin-4-yl)-2,3-dihydropyrrolo[3,4-b]quinolin-1-one]	6.7	0.065	0.33
COc1cncc(-c2cccc3c(N)c4c(nc23)CN(C2CCC2)C4=O)c1 [9-Amino-2-cyclobutyl-5-(5-methoxy-pyridin-3-yl)-2,3-dihydropyrrolo[3,4-b]quinolin-1-one]	1.86	0.038	0.26
Cc1ccc(-c2cccc3c(N)c4c(nc23)CN(C2CCC2)C4=O)nc1 [9-Amino-2-cyclobutyl-5-(5-methylpyridin-2-yl)-2,3-dihydropyrrolo[3,4-b]quinolin-1-one]	12.7	0.088	0.13
Cc1nc(F)ccc1-c1cccc2c(N)c3c(nc12)CN(C1CCC1)C3=O [9-Amino-2-cyclobutyl-5-(6-fluoro-2-methylpyridin-3-yl)-2,3-dihydropyrrolo[3,4-b]quinolin-1-one]	2.39	0.13	0.31
Cc1cc(-c2cccc3c(N)c4c(nc23)CN(C2CCC2)C4=O)cnc1F [9-Amino-2-cyclobutyl-5-(6-fluoro-5-methylpyridin-3-yl)-2,3-dihydropyrrolo[3,4-b]quinolin-1-one]	8.54	0.018	0.2
COc1ccc(-c2cccc3c(N)c4c(nc23)CN(C2CCC2)C4=O)c(C)n1 [9-Amino-2-cyclobutyl-5-(6-methoxy-2-methylpyridin-3-yl)-2,3-dihydropyrrolo[3,4-b]quinolin-1-one]	5.03	−0.0033	0.2
COc1ncc(-c2cccc3c(N)c4c(nc23)CN(C2CCC2)C4=O)cc1C [9-Amino-2-cyclobutyl-5-(6-methoxy-5-methylpyridin-3-yl)-2,3-dihydropyrrolo[3,4-b]quinolin-1-one]	4.61	0.029	0.16
COc1cccc(-c2cccc3c(N)c4c(nc23)CN(C2CCC2)C4=O)n1 [9-Amino-2-cyclobutyl-5-(6-methoxypyridin-2-yl)-2,3-dihydropyrrolo[3,4-b]quinolin-1-one]	1.48	0.085	0.16
COc1ccc(-c2cccc3c(N)c4c(nc23)CN(C2CCC2)C4=O)cn1 [9-Amino-2-cyclobutyl-5-(6-methoxypyridin-3-yl)-2,3-dihydropyrrolo[3,4-b]quinolin-1-one]	6.48	−0.035	0.14
Cc1ccc(-c2cccc3c(N)c4c(nc23)CN(C2CCC2)C4=O)cn1 [9-Amino-2-cyclobutyl-5-(6-methylpyridin-3-yl)-2,3-dihydropyrrolo[3,4-b]quinolin-1-one]	4.44	−0.13	0.21
Nc1c2c(nc3c(-c4ccc(N5CCOCC5)nc4)cccc13)CN(C1CCC1)C2=O [9-Amino-2-cyclobutyl-5-(6-morpholin-4-yl-pyridin-3-yl)-2,3-dihydropyrrolo[3,4-b]quinolin-1-one]	8.81	−0.025	0.12
Nc1c2c(nc3c(-c4cnccn4)cccc13)CN(C1CCC1)C2=O [9-Amino-2-cyclobutyl-5-pyrazin-2-yl-2,3-dihydropyrrolo[3,4-b]quinolin-1-one]	11.3	−0.066	0.11
Nc1c2c(nc3c(-c4ccccn4)cccc13)CN(C1CCC1)C2=O [9-Amino-2-cyclobutyl-5-pyridin-2-yl-2,3-dihydropyrrolo[3,4-b]quinolin-1-one]	4.66	0.061	0.12
Nc1c2c(nc3c(-c4ccncc4)cccc13)CN(C1CCC1)C2=O [9-Amino-2-cyclobutyl-5-pyridin-4-yl-2,3-dihydropyrrolo[3,4-b]quinolin-1-one]	1.35	0.079	0.17
